According to patent US7226937B2, “Methods for modulating phototoxicity” (Board of Regents on Behalf of the University of Arizona, priority 2002, dated 2007):

Experiments:
[1] = tested on: skin fibroblasts (CF3 cells); assay: Cell protection against sensitized photodamage (TB plus visible light); assay type: cell-based, human; conditions: test compound 10 mM, TB 3.3 μM, visible light 10.8 J/cm^2; for Cell Protection against Sensitized Photodamage: ± SD, n = 3, CF3 fibroblasts counted after 3 days; for protective effect against sensitized photodamage, in words: CF3 fibroblasts
Procedure: Cultured skin fibroblasts (CF3 cells) were exposed to photooxidative stress from ^1O2 which had formed, in situ, by dye sensitization.
In brief, 50,000 fibroblasts were seeded in a 35 mm culture dish, and then treated one day later with visible light (90 seconds exposure, providing 10.8 J/cm^2) in the presence or absence of TB (3.3 μM in Hanks buffered salt solution). Five minutes after treatment, cells were washed, with phosphate buffered saline. Test compound (10 mM) was present or absent in the culture during the radiation. After 3 days of cultivation, cells were harvested via trypsinization, and counted using a Coulter counter.
Protection was determined via the formula: […]

[2] = mixture of TB and L-Pro in PBS; visible light 36 J/cm^2
HaCaT keratinocytes = assay: Proliferation inhibition of HaCaT keratinocytes with or without light; assay type: cell-based; conditions: for cell proliferation relative to a control (antiproliferative effect): 500 μM compound, HaCaT keratinocytes, no light or UVA 3.3 J/cm^2, 3 days after stimulation
Procedure: (§1) A series of experiments were carried out on HaCaT keratinocytes, and human CF3 fibroblasts. In these experiments, cell samples were contacted with 500 μM of pyridinoline, 500 μM of desmosine, which is an elastin constituent with a structure related to pyridinoline, or 500 μM of vitamin B6 (pyridoxine). Controls received no added compound. In one set of experiments, the cells received no external light source. In another set of experiments, they received UVA light, at 3.3 J/cm^2. The CF3 fibroblasts received solar simulated light, or “SSL,” which combines 2.3 J/cm^2 of UVA light, and 0.12 J/cm^2 of UVB light. Results are shown, in FIG. 2, in terms of percent of cell proliferation relative to a control (no added compound, no light). The measurements were taken 3 days after stimulation.
HaCaT cells, as described supra, were tested in a proliferation inhibition assay. Cell samples received equal amounts of one of the 4 compounds listed supra and were contacted with or without either solar simulated light (“SSL”) as described, supra, or UVA light alone, also as described supra.
The antiproliferative effect of the complexes described in example 4 were tested, by adding either nothing (control), BSA, or the BSA-B6 complexes, and treating or not treating samples of HaCaT keratinocytes with SSL. The BSA and BSA-B6 were added at 10 mg/ml, and the SSL was 2.3 J/cm^2 of UVA plus 0.12 J/cm^2 UVB. Three days after treatment, proliferation was measured using a Coulter counter, and standard methods.

human CF3 fibroblasts = assay: Proliferation inhibition of CF3 fibroblasts with or without solar simulated light; assay type: cell-based; conditions: 500 μM compound, no light or SSL (2.3 J/cm^2 UVA, 0.12 J/cm^2 UVB), 3 days after stimulation
Procedure: as §1

ΦX174 plasmid = assay: Suppression of AGE-sensitized DNA (plasmid) cleavage; assay type: biochemical; conditions: for suppression of AGE-sensitized plasmid cleavage, in words: as in Table 1
From the text: It is well known that ΦX174 plasmid is cleaved only by combined action of irradiation from solar simulated light, and AGE-pigment enriched protein, which acts as a UV sensitizer. AGE-BSA (“advanced glycation end product” modified bovine serum albumin), is a model for accumulation of endogenous skin sensitizers of the type described supra. Details of the assay showing this will be found in Wondrak, et al., Photochem. Photobiol. […] This assay was used in this example.
Plasmid cleavage was visualized by running samples on 1% agarose gels, and damage, i.e., formation of relaxed, open circular forms from closed circular forms (undamaged) were quantified via densitometry, which permitted assessment of the protective effect of a compound.
AGE-cleavage proceeds in the absence of oxygen, and cannot be suppressed fully via antioxidants. As such, if a compound suppresses plasmid cleavage it cannot be simply considered an antioxidant. In contrast, inhibition via quenching of the excited state, as described supra, must be presumed.
Using this assay, a series of proline related compounds and proline were tested. The structures of the compounds are set forth at FIG. 10. FIG. 11, sets forth the results of these experiments. […]

O=C(O)[C@@H]1CCCN1 [L-Pro, proline]
Cell Protection against Sensitized Photodamage [1]: 6.2 ± 5.4%
change in HPLC peak, retention time or AUC after light exposure (inertness toward 1O2) [2]: No changes were observed

Cc1ncc(CO)c(CO)c1O [Vitamin B6, pyridoxine]
cell proliferation relative to a control (antiproliferative effect) (HaCaT keratinocytes): dramatically more efficacy in inhibiting the cellular proliferation
cell proliferation relative to a control (antiproliferative effect) (human CF3 fibroblasts): dramatically more efficacy in inhibiting the cellular proliferation

COC(=O)[C@@H]1CCCN1 [L-Pro-OCH3]
quenching of photosensitized DNA damage (plasmid cleavage) (ΦX174 plasmid; test compound 100 mM, UVA 2.3 J/cm^2, AGE-BSA 10 mg/ml): most potent of the quenchers
protective effect against sensitized photodamage, in words [1]: very clear protective effect
Cell Protection against Sensitized Photodamage [1]: 83.8 ± 10.9%

Oc1cccnc1 [3-hydroxypyridine]
type of light in whose presence the compound functioned (HaCaT keratinocytes; HaCaT cells, SSL or UVA alone): functioned in the presence of UVB light as a cell proliferation inhibitor
effect on HaCaT cells in proliferation inhibition assay, compared to controls (HaCaT keratinocytes; equal amounts of compound, with or without SSL or UVA light): inhibitory effect

COC(=O)[C@@H]1CC(O)CN1 (stereo partly drawn) [4-OH-L-Pro-OCH3, 4-OH-L-proline methyl ester]
protective effect against sensitized photodamage, in words [1]: very clear protective effect
Cell Protection against Sensitized Photodamage [1]: 71.0 ± 13.4%

N[C@@H](CC[C@@H](O)C[n+]1cc(O)c(C[C@H](N)C(=O)O)c(CC[C@H](N)C(=O)O)c1)C(=O)[O-] [pyridinoline]
cell proliferation relative to a control (antiproliferative effect) (HaCaT keratinocytes): antiproliferative effect, but only in the presence of light
cell proliferation relative to a control (antiproliferative effect) (human CF3 fibroblasts): antiproliferative effect, but only in the presence of light

CC(C)(S)[C@@H](N)C(=O)O [D-Penicillamine, D-penicillamine]
% Inhibition (±SD) of AGE-sensitized DNA cleavage (ΦX174 plasmid; 20 mM): 95.7 ± 0.7%
suppression of AGE-sensitized plasmid cleavage, in words (ΦX174 plasmid): effective

N[C@@H](CCC(=O)N[C@@H](CS)C(=O)NCC(=O)O)C(=O)O [GSH, glutathione]
% Inhibition (±SD) of AGE-sensitized DNA cleavage (ΦX174 plasmid; 20 mM): 100.0 ± 0.0%
suppression of AGE-sensitized plasmid cleavage, in words (ΦX174 plasmid): effective

CC(=O)N[C@@H](CS)C(=O)O [NAC, N-acetyl-L-cysteine]
% Inhibition (±SD) of AGE-sensitized DNA cleavage (ΦX174 plasmid; 20 mM): 99.4 ± 0.9%
suppression of AGE-sensitized plasmid cleavage, in words (ΦX174 plasmid): effective

OC[C@@H](O)[C@@H](O)[C@H](O)[C@H](O)CO [Mannitol]
% Inhibition (±SD) of AGE-sensitized DNA cleavage (ΦX174 plasmid; 20 mM): 47.5 ± 2.5%

CC(=O)N(O)CCCCCNC(=O)CCC(=O)N(O)CCCCCNC(=O)CCC(=O)N(O)CCCCCN [DFO]
% Inhibition (±SD) of AGE-sensitized DNA cleavage (ΦX174 plasmid; 1 mM): 51.3 ± 1.0%

N[C@@H](Cc1c[nH]cn1)C(=O)O [L-Histidine]
% Inhibition (±SD) of AGE-sensitized DNA cleavage (ΦX174 plasmid; 20 mM): 43.7 ± 0.4%

[N-]=[N+]=[N-].[Na+] [NaN3]
% Inhibition (±SD) of AGE-sensitized DNA cleavage (ΦX174 plasmid; 20 mM): 94.0 ± 0.5%
suppression of AGE-sensitized plasmid cleavage, in words (ΦX174 plasmid): effective

C1CN2CCN1CC2 [DABCO]
% Inhibition (±SD) of AGE-sensitized DNA cleavage (ΦX174 plasmid; 20 mM): 32.9 ± 1.1%

Catalase
% Inhibition (±SD) of AGE-sensitized DNA cleavage (ΦX174 plasmid; 400 u/mL): 57.5 ± 4.7%
effect of catalase on vitamin B6 sensitization (HaCaT keratinocytes; catalase added at 400 μ/ml, cell type not stated): absolutely no effect

O=C(O)[C@@H]1CC(O)CN1 (stereo partly drawn) [4-OH-L-Pro, 4-hydroxy-L-proline]
Cell Protection against Sensitized Photodamage [1]: 7.3 ± 2.5%
